The values below come from patent US20070154534A1, “Use of secretin in the treatment of schizophrenia” (priority 2003, published 2007).

Marks after values point to notes of the source that are not given here. Ends that are not written are not given here. A value given as a limit tells only on which side of the number the result lay.

The conditions of data set [1]: clinical units (CU); 0.2 mcg = 1 CU; cited from earlier work.
Data set [2] deals with patients with refractory schizophrenia. Kind of data set: Double-blind placebo-controlled pilot study of a single intravenous dose of porcine secretin, rated with PANSS and CGI. It counts as in vivo, human. The note with it: for PANSS negative: baseline 25.5; for PANSS positive: baseline 27; for PANSS general: baseline 48.7; for PANSS total: baseline 101.2. Here is the method: A pilot study of secretin for treatment of refractory schizophrenia was performed. Twenty-two patients were randomized to a single intravenous dose of porcine secretin or placebo. Patients were evaluated with the Positive and Negative Symptom Scale for Schizophrenia (PANSS) and the Clinical Global Impression Scale (CGI) at baseline, two days after secretin infusion and weekly for four weeks. Several patients treated with secretin experienced clinically meaningful, though transient when given a single dose, reductions in symptoms and a greater percentage of patients treated with secretin were rated as improved with the CGI.
All subjects were inpatients at Dorothea Dix Hospital in Raleigh, N.C. United States of America. The protocol was approved by the University of North Carolina at Chapel Hill Committee for the Protection of the Rights of Research Subjects. Subjects or their guardians provided written informed consent. Patients met the following inclusion criteria: (1) age 18-60; (2) DSM-IV diagnosis of schizophrenia or schizoaffective disorder; (3) severe residual symptoms despite at least three adequate trials of anti-psychotic drugs, including at least one atypical drug. Residual symptoms were defined as active delusions, hallucinations, or thought disorder, accompanied by unemployment and lack of significant social relationships outside the family of origin; (4) a baseline PANSS score of at least 70; (5) no changes in psychotropic medications for 4 weeks prior to study entry.
Subjects were assessed at baseline, two days post-infusion, and weekly for four subsequent weeks, with the Clinical Global Impression Scale (CGI) and the Positive and Negative Symptom Scale for Schizophrenia (PANSS). All raters achieved inter-rater reliability of at least 0.90 for the PANSS, and each subject had the same rater for each assessment. Qualitative impressions were also collected from clinical staff during the course of the trial.

Data set [3] has the same test system. The note with it: in vivo, iv.
Protocol: Twenty-two subjects were enrolled in the protocol and were randomly assigned to receive one dose of intravenous porcine secretin (SECRETIN-FERRING™, Ferring Laboratories, Inc., Suffern, N.Y., United States of America) or normal saline under double-blind conditions. The protocol allowed for only one infusion of secretin regardless of response. The first seven subjects received either 75 CU of secretin dissolved in 7.5 mL of normal saline (n=4), or saline alone (n=3). The remaining 15 subjects received 150 CU of secretin (n=7) or saline (n=8).
Setting [4] is: Week 1, single i.v. dose 75 or 150 CU, n=11, mean.
Setting [5] is: Week 1 after single i.v. dose 75 or 150 CU, n=11, mean.
The mark [6] stands for this setting: Week 2, single i.v. dose 75 or 150 CU, n=11, mean.
The mark [7] stands for this setting: Week 2 after single i.v. dose 75 or 150 CU, n=11, mean.
The mark [8] stands for this setting: Week 3, single i.v. dose 75 or 150 CU, n=11, mean.
Where [9] appears, read: Week 3 after single i.v. dose 75 or 150 CU, n=11, mean.
The mark [10] stands for this setting: Week 4, single i.v. dose 75 or 150 CU, n=11, mean.
The mark [11] stands for this setting: Week 4 after single i.v. dose 75 or 150 CU, n=11, mean.
Setting [12] is: within the first week after infusion, of 11 secretin-treated patients.

In the case of “SECREFLO: Secretin commercially available under the trademark SECREFLO from RepliGen Corporation (HSDGTFTSELSRLRDSARLQRLLQGLV-NH2; ends and bridges not checked; UniProt P63298 33-59, looked up)”, in data set [1], the “Potency per milligram of peptide” value is “approximately 5000 CU per milligram”.

Regarding “biologically derived porcine secretin: biologically derived porcine secretin, comparison for SECREFLO potency (HSDGTFTSELSRLRDSARLQRLLQGLV; ends and bridges not checked; UniProt P63298 33-59, looked up)”, the “Potency per milligram of peptide” value in data set [1] was 3000 CU per milligram.

Take Secretin: the “Patients with a clinically meaningful response” value in data set [2] (75 CU single i.v. dose) is listed as 1 of 4. In addition, the “Patients with a clinically meaningful response” value in data set [2] (150 CU single i.v. dose) was 2 of 7. Also, the CGI-I in data set [2] (Day 2 after single i.v. dose 75 or 150 CU, n=11, mean (SD)) is 3.5 (0.8)*. In addition, the “Group by time interaction for the CGI-Improvement (CGI-I) scale (repeated measures ANOVA, vs placebo)” value in data set [2] (F=0.69) was “no significant group by time interaction”. Moreover, in data set [2] (F=1.72, 1.08, 0.6679, 0.41), the “Group by time interaction for PANSS total, positive, negative and general psychopathology scores (repeated measures ANOVA, vs placebo)” value is reported as “no significant group by time interactions”. In data set [2] (setting [4]), this substance yielded a PANSS negative of 24.3, a PANSS positive of 25 and a PANSS general of 45.8. In data set [2] (setting [5]), the CGI-I is recorded as 3.4* and the PANSS total is recorded as 95.1. In data set [2] (setting [6]), this substance yielded a PANSS negative of 24.7, a PANSS positive of 26.9 and a PANSS general of 49.2. In data set [2] (setting [7]), this substance returned a CGI-I of 3.9 and a PANSS total of 100.8. For the same substance, in data set [2] (setting [8]), the PANSS negative was 24.9, the PANSS positive worked out at 27 and the PANSS general stood at 48.2. In addition, in data set [2] (setting [9]), the CGI-I is reported as 3.8* and the PANSS total stood at 100.1. In data set [2] (setting [10]), the PANSS negative is recorded as 24.5, the PANSS positive is 26.7 and the PANSS general was found to be 48.3. In data set [2] (setting [11]), the CGI-I was determined as 3.9 and the PANSS total was found to be 99.5. The “Time until reversion to usual behavior and level of function” value in data set [2] (patient of Example 1, 75 CU) is on record as “four”. Also, the “Time to onset of clinical improvement (more interactive)” value in data set [2] (patient of Example 1, person, disorganized schizophrenia, 75 CU) was at most 24 h. For the same substance, the “Time until return to baseline mental state” value in data set [2] (patient of Example 2, 150 CU) is at most 12 h. For the same substance, the “Time to onset of clinical improvement (more alert, coherent speech)” value in data set [2] (patient of Example 2, person, disorganized schizophrenia, 150 CU) is on record as “six”. In data set [2] (patient of Example 3, person, paranoid schizophrenia, 150 CU), the “Time after infusion at which improvement was seen (agreed to attend off ward activities)” value is 48 h. Besides, in data set [2] (two days after infusion (p=0.03), week 1 (p=0.009), week 3 (p=0.002)), the “CGI-I scale vs placebo, post-hoc exploratory Student's t-tests” value is reported as “significant improvement”. Further, in data set [2] (setting [12]), the “Patients rated as minimally improved (qualitative grouping of CGI-I scores)” value is “five”, the “Patients rated as much improved (qualitative grouping of CGI-I scores)” value is reported as “three”, the “Patients rated as unchanged (qualitative grouping of CGI-I scores)” value was “two” and the “Patients rated as worse (qualitative grouping of CGI-I scores)” value is “one”. In data set [3], the Allergic reactions entry is reported as “no allergic reactions were observed”, the “Premature dropouts or serious adverse events during the trial” value is listed as “no premature dropouts or serious adverse events” and the Side effects result is recorded as “no side effects noted”.
